From PubChem BioAssay AID179 (DTP/NCI, 2004)
pEC50, pIC50: −log10 of the molar value. Active and inactive are the calls of the source.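 The calls were made as follows: active = compounds giving half or more protection of infected cells from virus-caused growth loss, again on retest; inactive = the rest.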

Tested on: CEM cells HIV-1 protection, formazan growth assay
Assay: NCI AIDS Antiviral Assay
Conditions: for pIC50: measured here: growth of uninfected CEM cells
Method in brief: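 Protection of CEM cells against HIV-1 measured as cell growth via soluble formazan read-out, with five concentrations tested on both infected and uninfected cells; failure to protect may reflect toxicity.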

| SMILES | pEC50 | pIC50 | outcome |
| --- | --- | --- | --- |
| CCCCC(C)CCCC1=C(O)C(CC(=O)O)OC1=O (stereo unspecified) | < 4.06 | < 4.06 |  |
| CC1(C)C=C(S(=O)(=O)c2ccccc2)Oc2ccccc2O1 | < 3.70 | 3.88 |  |
| CC(C)(C)C(=O)/C=C/c1ccccc1Cl | < 4.63 | < 4.63 |  |
| CC(C)=CCC(O)[C@](C)(O)[C@H]1[C@H](O)C[C@@]2(C)[C@@H]3CCc4cc(O)c(OC5OC(CO)C(O)C(O)C5O)cc4C3(C)C(=O)C[C@]12C (stereo partly specified) | < 3.70 | < 3.70 |  |
| NC(=O)C(=Cn1c(=S)[nH]c2ccccc21)C(N)=O | < 3.70 | < 3.70 |  |
| CCNC(=O)c1ccc(C)c(N=NN(C)C)c1 | < 3.54 | < 3.54 |  |
| Cc1ccc(NC(=S)/C(=C(/[O-])c2ccc([N+](=O)[O-])cc2)[n+]2ccccc2)c(C)c1 | < 3.70 | < 3.70 |  |
| CC1CCCC/C1=N/NS(=O)(=O)c1ccc(N)cc1 (stereo unspecified) | < 3.62 | < 3.62 |  |
| CC/C=C/C(O[Si](C)(C)C(C)(C)C)C1CC2OC(=O)CCCC2O1 (stereo unspecified) | < 3.15 | < 3.15 |  |
| COc1ccccc1NC(=O)C1=C(C)NC(C)=C(C(=O)Nc2ccccc2OC)C1c1ccccc1Cl |  |  | inactive |
| COc1ccc(CNc2nc3ccccc3nc2-c2cccs2)cc1OC | < 4.72 | 4.77 |  |
| COC1CCC(CO)OO1 (stereo unspecified) | < 3.70 | 5.51 |  |
| N/C(=N\N=C\c1cccs1)NO | < 3.15 | < 3.15 |  |
| Cn1cnc([N+](=O)[O-])c1Sc1ncnc2nc[nH]c12 | < 3.70 | 4.97 |  |
| CC1(C)CC2C=C(C=O)C3(C=O)CC3(C)C2C1 (stereo unspecified) | < 5.46 | 6.30 |  |
| C1CSCCSS[C@@H]2CCCCC2SC1 (stereo partly specified) | < 4.47 | < 4.47 |  |
| COc1ccc(N2C(=O)C3c4[nH]c5c(C)cccc5c4C4CCC(C(C)(C)C)CC4C3C2=O)cc1 (stereo unspecified) | < 3.70 | 5.10 |  |
| COc1ccc2[nH]c3c(C)c4cc[n+](C)cc4c(C)c3c2c1 | < 4.70 | 6.38 |  |
| CC1CCOS(=O)O1 (stereo unspecified) | < 2.74 | < 2.74 |  |
| CCCCCCCC(=O)O[C@H]1[C@H]2[C@@H](CC1(C)C)C(=O)[C@]13O[C@H]1C(=O)[C@]1(CO1)[C@]23C | < 3.79 | 6.26 |  |
| CSC1NNC2(C(=O)N1)c1ccccc1-c1ccccc12 (stereo unspecified) | < 3.70 | 4.57 |  |
| c1ccc2c(c1)n1c(N3CCOCC3)[n+]3ccccc3c1c1c3cccc[n+]3c(N3CCOCC3)n21 | 3.91 | 3.84 |  |
| O=S(=O)(O)c1cccc2c1CN1CCCCC1C2 (stereo unspecified) | < 3.70 | < 3.70 |  |

| SMILES | pEC50 | pIC50 | outcome |
| --- | --- | --- | --- |
| NC(=O)N/N=C(\Cc1nc2ccc(Cl)cc2[nH]c1=O)C(=O)Nc1ccc(Cl)cc1Cl | < 4.11 | < 4.11 |  |
| NNC(=O)CCC(=O)NC1C2CC3CC(C2)CC1C3 (stereo unspecified) | < 3.17 | < 3.17 |  |
| O=C1c2ccccc2N2OC3(N4CCCC4)CCCCC3C12c1ccccc1 (stereo unspecified) | < 5.00 | < 5.00 |  |
| Cc1cc(C)nc(NS(=O)(=O)c2ccc(NNc3c4ccccc4nc4c(C(=O)Nc5ccc(S(=O)(=O)Nc6cc(C)on6)cc5)cccc34)cc2)n1 | < 3.70 | 4.46 |  |
| CN(C)Cc1cc(N=Nc2ccc(Cl)cc2)cc(CN(C)C)c1O | < 4.70 | 5.06 |  |
| O=C(CCc1nc(=S)[nH][nH]1)Nc1cc(Cl)ccc1Cl | < 3.39 | < 3.39 |  |
| CCOc1ccc(NC(=S)NC=C(C#N)C#N)cc1 | < 3.70 | < 3.70 |  |
| COc1cc2c(cc1OC)[C@@H](C(O)c1ccccc1)NCC2 (stereo partly specified) |  |  | inactive |
| CCOC(=O)C(NC(=O)CC(C)C)(Nc1ccc(C(F)(F)F)cc1)C(F)(F)F (stereo unspecified) | < 3.70 | 4.25 |  |
| c1ccc2sc(N3CCCCC3)nc2c1 | < 3.70 | 4.09 |  |
| CCOC(=O)c1nc2ccccc2nc1NCc1ccc(OC)c(OC)c1 | < 3.70 | < 3.70 |  |
| c1csc(-c2cscc2-c2ccsc2)c1 | < 3.70 | 4.41 |  |
| COc1cc2c(c(O)c1OC)c(=O)c1ccccc1n2C | < 3.70 | 4.18 |  |
| CC(=O)N1C(OC(C)C)CC(C)N1c1ccccc1 (stereo unspecified) | < 3.70 | < 3.70 |  |
| CO[C@@]12[C@@H]3N[C@@H]3CN1C1=C(C(=O)C(N3CCCC3)=C(C)C1=O)[C@@H]2COC(N)=O | < 3.70 | 6.20 |  |
| c1ccc(C(NC2CCCCC2NCCNC2CCCCC2NC(c2ccccc2)(c2ccccc2)c2ccccc2)(c2ccccc2)c2ccccc2)cc1 (stereo unspecified) | < 3.70 | 5.21 |  |
| Cc1nc2c(=O)n(C)ncc2[nH]1 | < 3.70 | < 3.70 |  |
| Cc1ccccc1C1(O)c2ccccc2Oc2ccccc21 | < 3.70 | 4.86 |  |
| O=C(O)c1cc[c]([Sb](=[O])([OH])[OH])cc1 | 4.53 | < 3.70 |  |
| CSc1nc(=O)n(CCC#N)nc1SC | < 3.70 | 4.53 |  |
| CCOP(=O)(OCC)c1ccc(=O)[nH]c1-c1cccs1 | < 3.70 | < 3.70 |  |
| Cc1c(N/C=C(\C#N)C(=O)c2ccc(Cl)cc2)c(=O)n(-c2ccccc2)n1C | < 3.70 | 4.14 |  |
| O=[N+]([O-])c1ccc(NC(=S)N/N=C(\c2ccccc2)c2ccccn2)cc1 | < 5.70 | < 5.70 |  |

| SMILES | pEC50 | pIC50 | outcome |
| --- | --- | --- | --- |
| O=C(OCCOC(=O)c1ccc2c(c1)C1(SCCS1)c1ccccc1-2)c1ccc2c(c1)C1(SCCS1)c1ccccc1-2 | < 4.52 | < 4.52 |  |
| N#CCC(=O)NC1C2CC3CC(C2)CC1C3 (stereo unspecified) | < 3.64 | 4.46 |  |
| O=S1(=O)CC2C3C=CC(O3)C21 (stereo unspecified) | < 2.84 | < 2.84 |  |
| Nc1nc(Cl)cc(NCC2(CO)CC(Cc3ccccc3)C2)n1 (stereo unspecified) | < 4.70 | 6.76 |  |
| C=CCn1c(C23CC4CC(CC(C4)C2)C3)n[nH]c1=S | < 3.00 | 4.51 |  |
| CC(C)(C)C(=O)OC1CCOP(=O)(OCC2OC(n3cc(F)c(=O)[nH]c3=O)CC2O)O1 (stereo unspecified) | < 3.70 | 5.57 |  |
| CCOc1ccc2ccccc2c1NC1=NCCO1 | < 3.70 | 3.97 |  |
| N=C(N)N1CCC(N2CCOCC2)CC1 | < 3.70 | < 3.70 |  |
| N#CC12C(=O)NC(=O)C1(C#N)C1C=CC2CC1 (stereo unspecified) | < 3.70 | < 3.70 |  |
| CN(/N=C(\C(=O)O)c1ccccc1)C1=NCCCN1 | < 3.70 | < 3.70 |  |
| CC[C@@]1(O)C(=O)OCc2c1cc1n(c2=O)Cc2cc3cc(O)ccc3nc2-1 | < 4.43 | 8.08 |  |
| CC1=C(CO)C(=O)OC(C(C)C2CCC3C4CC5OC56C(O)C(N5CC5)=CC(=O)C6(C)C4CCC23C)C1 (stereo unspecified) |  |  | inactive |
| CCN(CC)CCCNc1ccc([N+](=O)[O-])c2nc3ccccc3c(N)c12 | < 3.70 | 6.67 |  |
| O=C(/C=C/c1ccc(O)c(O)c1)OCCOC(=O)/C=C/c1ccc(O)c(O)c1 | < 3.70 | 5.00 |  |
| COC(=O)C1=C(C)NC2=C(C(=O)c3ccccc32)C1c1cn[nH]c1-c1ccccc1 (stereo unspecified) | < 4.70 | < 4.70 |  |
| CC(=O)OC1(C(C)=O)CC2(c3ccccc3)OC1(c1ccccc1)c1ccccc12 (stereo unspecified) |  |  | inactive |
| COC1OC2COC(C)(C)OC2C(OC(C)=O)C1NC(=O)N(CCCl)N=O (stereo unspecified) | < 3.64 | < 3.64 |  |
| CCOC1C2c3cc(OC)c(OC)cc3CC(C#N)(c3ccccc32)N1C(=O)c1ccccc1 (stereo unspecified) |  |  | inactive |
| COc1ccc(/C=C2\C=Cc3ccccc32)cc1 | < 4.79 | 4.86 |  |
| Brc1ccc(/C(N=N/C(=N\Sc2ccccc2)c2ccc(Br)cc2)=N/Sc2ccccc2)cc1 | < 4.30 | < 4.30 |  |
| O=c1[nH]c(Nc2ccc(Br)c(C(F)(F)F)c2)nc2nc[nH]c12 | < 3.82 | 4.55 |  |
| NC(N)=N/N=C/c1c(-c2ccc(Cl)cc2)nc2n1CCS2 | < 3.70 | 4.95 |  |
| C/C=C1/CN2CCc3c4n(c5ccccc35)[C@@H](CO)C1CC42 (stereo partly specified) | < 4.21 | < 4.21 |  |

| SMILES | pEC50 | pIC50 | outcome |
| --- | --- | --- | --- |
| CCOC(=O)c1sc2[n+](c1C)C(=O)/C(=C/c1cc(OC)c(OC)c(OC)c1)S2 | < 3.70 | 4.89 |  |
| Clc1ccccc1C(n1ncc2ccccc21)n1ncc2ccccc21 |  |  | inactive |
| COc1ccc2ccccc2c1CN1CCOCCOCCN(Cc2c(OC)ccc3ccccc23)CCOCCOCC1 | < 5.06 | 5.31 |  |
| Cc1n[nH]c(=O)n1Nc1ccccc1 | < 3.70 | < 3.70 |  |
| CCN(CC)CCNc1ccc([N+](=O)[O-])c2nc3ccc(OC)cc3c(N)c12 | < 3.70 | 6.48 |  |
| Nc1nc(NCCOCP(=O)(O)O)c(N)c(=O)[nH]1 | < 3.70 | < 3.70 |  |
| Clc1ccc(C(c2ccc(Cl)cc2)c2cncnc2)cc1 |  |  | inactive |
| CN(C)c1ccc(/C=C/c2cc[n+](C)c3ccccc23)cc1 | < 3.70 | 6.30 |  |
| CC1(C)C2CCC3(C2)CS(=O)(=O)N2OC231 (stereo unspecified) | < 3.66 | 3.92 |  |
| C[C@@]1(CO[N+](=O)[O-])OC(=O)N2CCC[C@H]21 | < 2.94 | < 2.94 |  |
| OCc1ccc[n+](CCc2c[nH]c3ccccc23)c1 | < 3.12 | 3.50 |  |
| CCN(CC)c1ccc(N=Nc2ccc(-c3nc4cccn(C)c-4n3)cc2)cc1 | < 5.13 | < 5.13 |  |
| Cc1cnc(/N=c2\sc(C)cn2-c2ncc(C)s2)s1 | < 3.70 | < 3.70 |  |
| COc1cc(/C=C2/SC(c3ccccc3)N(c3ccccc3)C2=O)cc(OC)c1OC (stereo unspecified) | < 4.70 | 5.35 |  |
| COc1ccc(N2C(=O)c3c4c(c5c([nH]c6ncccc65)c3C2=O)CCC(C(C)(C)C)C4)cc1 (stereo unspecified) | 3.72 | < 3.70 |  |
| COc1ccc(C(=O)Sc2c(-c3ccccc3)c(=O)n(-c3ccccc3)c(=S)n2-c2ccccc2)cc1 | < 3.70 | 5.48 |  |
| O=C(O/N=C1/CCC/C1=C\c1ccccc1)c1ccc(Cl)c(Cl)c1 |  |  | inactive |
| O=c1/c(=C\C=C\c2ccccc2)sc2n1CCN=2 |  |  | inactive |
| CC(C)NC(=O)OCCN=c1c2ccccc2ccc2ccccc12 | < 3.70 | 4.03 |  |
| Cc1ccc([P+](CCN2C(=O)c3ccccc3C2=O)(c2ccc(C)cc2)c2ccc(C)cc2)cc1 | < 3.70 | 5.00 |  |
| c1ccc(-c2sc(-c3cccs3)cc2Cc2cccs2)cc1 | < 3.70 | 4.08 |  |
